Measured values published in patent publication US20230321082A1, “USE OF TRIAZOLE ANALOGUES FOR INHIBITION OF A TRIPARTITE VOR PROTEIN COMPLEX IN MULTICELLULAR ORGANISMS” (TECHNISCHE UNIVERSITÄT DRESDEN, priority 2020, published 2023).

Key:
[1] = test system: host cells; experiment: NEI-associated late endosomes and nuclear transfer of EV-derived components after importazole treatment; format: cell-based
Text: Referring to FIGS. 1A, 1B and 1C, illustrate data showing the localization and tripartite structure of a VOR complex. […] Typically, EVs are transported to late endosomes after their endocytosis, wherein the EVs facilitate intercellular communication in diverse cellular processes.

[2] = target: T1, tripartite VAP-A, ORP3 and Rab7 (VOR) protein complex (Homo sapiens, UniProt Q9H4L5); experiment: VOR complex integrity in detergent SW480 cell lysates (anti-ORP3 immunoisolation, Rab7 co-immunoisolation); format: biochemical; details: 10 μM, 30 minutes on ice
T1 construct: solubilized and subjected to immunoisolation (IS) using anti-ORP3 Ab followed by Protein G-coupled magnetic beads; endogenous in cells; host or cells: SW480 cells
T1 sequence (Q9H4L5 1-887): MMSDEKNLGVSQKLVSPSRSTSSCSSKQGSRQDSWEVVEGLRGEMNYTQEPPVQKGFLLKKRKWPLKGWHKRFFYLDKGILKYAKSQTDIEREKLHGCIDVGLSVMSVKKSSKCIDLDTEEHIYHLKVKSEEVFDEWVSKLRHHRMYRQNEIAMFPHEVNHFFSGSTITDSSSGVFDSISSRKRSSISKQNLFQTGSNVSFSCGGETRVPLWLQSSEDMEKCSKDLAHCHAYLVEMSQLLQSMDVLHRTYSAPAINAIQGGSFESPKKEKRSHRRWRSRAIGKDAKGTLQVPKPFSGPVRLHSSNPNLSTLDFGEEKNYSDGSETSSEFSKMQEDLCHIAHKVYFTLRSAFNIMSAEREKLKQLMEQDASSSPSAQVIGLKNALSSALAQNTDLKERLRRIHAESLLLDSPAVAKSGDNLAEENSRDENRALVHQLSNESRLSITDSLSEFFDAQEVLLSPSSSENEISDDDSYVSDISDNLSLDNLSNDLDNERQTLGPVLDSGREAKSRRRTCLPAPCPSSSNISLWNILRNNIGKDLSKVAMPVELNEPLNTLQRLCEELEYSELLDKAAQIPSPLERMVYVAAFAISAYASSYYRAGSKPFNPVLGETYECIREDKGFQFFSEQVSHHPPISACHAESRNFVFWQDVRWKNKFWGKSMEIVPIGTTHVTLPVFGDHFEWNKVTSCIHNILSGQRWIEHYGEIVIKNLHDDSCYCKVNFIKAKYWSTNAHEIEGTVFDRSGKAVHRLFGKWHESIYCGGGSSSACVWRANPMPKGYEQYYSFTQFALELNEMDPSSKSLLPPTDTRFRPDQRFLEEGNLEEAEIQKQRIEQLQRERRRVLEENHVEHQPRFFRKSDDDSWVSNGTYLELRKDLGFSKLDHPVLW
T1 sequence (Q9P0L0 1-249 partner): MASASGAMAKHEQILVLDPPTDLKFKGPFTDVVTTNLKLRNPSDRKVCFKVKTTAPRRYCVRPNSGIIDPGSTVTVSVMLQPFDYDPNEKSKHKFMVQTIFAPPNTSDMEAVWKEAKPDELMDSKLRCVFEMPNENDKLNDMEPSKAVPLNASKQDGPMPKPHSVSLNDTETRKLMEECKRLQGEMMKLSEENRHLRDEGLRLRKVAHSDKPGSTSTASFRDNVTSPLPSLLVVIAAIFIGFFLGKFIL
Experimental: Detergent SW480 cell lysates were incubated with DMSO solvent alone (control), 10 μM ICZ, triazole compound 5, compound 3 or ketoconazole for 30 minutes on ice, and then subjected to immunoisolation (IS) using anti-ORP3 Ab followed by Protein G-coupled magnetic beads. The input (1/50, for Rab7 only) and entire bound fractions were probed by immunoblotting for ORP3, VAP-A and Rab7. The Rab7/VAP-A ratios were quantified (n=3). The mean±S.D. are shown. P values are indicated. […] Referring to FIGS. 12A, 12B, 12C and 12D illustrate the effects of various triazole compounds on the VOR complex integrity. Detergent SW480 cell lysates were incubated with DMSO solvent alone (control), 2.5 μM (FIG. 12A), 5 μM (FIG. 12B), 7.5 μM (FIG. 12C) or 10 μM (FIG. 12D) ICZ and triazole compounds for 30 minutes on ice and then subjected to immunoisolation (IS) using anti-ORP3 Ab followed by Protein G-coupled magnetic beads. The entire bound fractions were probed by immunoblotting for ORP3, VAP-A and Rab7 (data not shown). The percent inhibition of Rab7 expression were quantified and compared to the control sample (dashed line).

[3] = test system: primary mesenchymal stromal cells; experiment: MTS cell viability, primary mesenchymal stromal cells; format: cell-based; details: 10 μM, 24, 48 and 72 hours
Experimental: (§1) Referring to FIG. 11, illustrates that triazole analogues were not toxic for cells. Cancer SW480 cells (left panel) and primary mesenchymal stromal cells (right panel) were incubated with DMSO solvent alone (control), 10 μM ICZ, compound 5, compound 3 or ketoconazole (KCZ) for 24, 48 and 72 hours as indicated. At the end of each time point, MTS tetrazolium compound (3-(4,5-dimethylthiazol-2-yl)-5-(3-carboxymethoxyphenyl)-2-(4-sulfophenyl)-2H-tetrazolium) was added for 1 hour to evaluate the amounts of viable cells. The absorbance value was measured at 490 nm. The mean±S.D. are shown (n=6). **, p<0.01.

[4] = test system: HIV-1 integrase in HeLa cells; experiment: Transport of HIV-1 integrase into the nucleoplasmic reticulum (IN-2 immunolabelling); format: cell-based; details: 10 μM, 30 minutes pretreatment, HIV-Gag-iGFP infection 1 hour
Experimental: (A) HeLa cells were pretreated with 10 μM of drugs as indicated for 30 minutes before HIV-Gag-iGFP infection for 1 hour in the presence of drugs. As controls, DMSO was used (DMSO, HIV-infected cells; control, uninfected cells). Cells were fixed and processed for double immunolabelling for VAP-A and HIV IN (IN-2). […] (B) HeLa cells expressing Rab7-RFP were treated as in panel A, and then double immunolabelled for SUN2 and IN-2. Scale bars, 10 (A) and 5 (B) μm.
Referring to FIG. 19A, B illustrates the quantification of IN-2 immunoreactivity in SUN2^+ NEI (A, 50 NEIs were assessed per experiment, n=3, individual values of each experiment is indicated) and the IN-2 nucleoplasm/cytoplasm ratio per cell (B, n=150 cells from three independent experiments) on HeLa cells treated with drugs as indicated (see FIG. 18B). Means±S.D. with individual values for each experiment (A) are shown. N.s., not significant; ***, p<0.001.

[5] = test system: Cancer SW480 cells; experiment: MTS cell viability, SW480 cells; format: cell-based; details: 10 μM, 24, 48 and 72 hours
Experimental: as §1

[6] = target: T1, tripartite VAP-A, ORP3 and Rab7 (VOR) protein complex; experiment: VOR complex integrity in whole SW480 cells (anti-ORP3 immunoisolation, Rab7 co-immunoisolation); format: cell-based; details: 10 μM, 5 hours
Experimental: SW480 cells were incubated with DMSO solvent alone (control), 10 μM ICZ, triazole compound 5, compound 3 or ketoconazole for 5 hours, solubilized and subjected to immunoisolation (IS) using anti-ORP3 Ab followed by Protein G-coupled magnetic beads. The input (1/50, for Rab7 only) and entire bound fractions were probed by immunoblotting for ORP3, VAP-A and Rab7. The Rab7/VAP-A ratios were quantified (n=3). The mean±S.D. are shown. P values are indicated.

[7] = test system: SW480 cells; experiment: EV-induced pro-metastatic morphological transformation; format: cell-based; details: 10 μM, 10 minutes pre-treatment, EVs 1×10^9 particles/ml, 5 hours
Experimental: Referring to FIG. 9, illustrates that the triazole compound 5 inhibited EV-induced pro-metastatic morphological transformation. SW480 cells were pre-treated with DMSO solvent alone (control), 10 μM ICZ, triazole compound 5 or compound 3 for 10 minutes prior to incubation without or with EVs (1×10^9 particles/ml) derived from metastatic SW620 cells for 5 hours. Cell morphology was analyzed by confocal laser scanning microscopy upon CD9 immunolabelling (data not shown). Bar graphs show the percentage of cells harboring a rounded (left panel) or blebbed (right panel) morphology upon exposure to EVs. The mean±S.D. are shown. At least 50 cells were evaluated per condition and independent experiment (n=6).

[8] = test system: HIV-Gag-iGFP infection of HeLa cells; experiment: HIV-1 productive infection (HIV-Gag-iGFP expression); format: cell-based; details: 10 μM pretreatment, infection 6 hours, then 24 hours in presence of drugs
Experimental: Referring to FIG. 20A-C, illustrates the impact of drugs on productive infection. HeLa cells pretreated with drugs as above before HIV-Gag-iGFP infection for 6 hours, washed, and incubated for 24 hours in the presence of drugs. Samples were processed either for immunocytochemistry or flow cytometry analyses. DMSO was used as solvent vehicle. […] Dashed line represents DMSO-treated, noninfected cells as a negative control. […] The percentage of GFP^+ cells as assessed by flow cytometry is plotted (C). Means±S.D. with individual values for each experiment are shown. Cy, cytoplasm; Pm, plasma membrane; n.s., not significant; ***, p<0.001.

[9] = test system: SW480 cells; experiment: Nuclear transfer of EV cargo (CD9-GFP); format: cell-based; details: 10 μM, 10 minutes pre-treatment, 5-hour incubation with EVs
Experimental: SW480 cells were pre-treated for 10 minutes with DMSO (control), 10 μM ICZ, triazole compound 5, triazole compound 3 or ketoconazole (KCZ) prior to 5-hour incubation with melanoma cell-derived CD9-green fluorescent protein (GFP)^+ EVs in the absence or presence of drugs. Recipient cells were then fixed and immunolabelled for the nuclear membrane protein SUN2. The amounts of EV-derived CD9-GFP in the nuclear compartments were analyzed by confocal laser scanning microscopy and quantified using Fiji software. Nuclear CD9-GFP was evaluated from 50 cells per condition and a representative experiment with mean±S.D. are shown. P values are indicated. N.s., not significant.

[10] = test system: SW480 cells; experiment: Scratch wound healing assay, EV-induced migration; format: cell-based; details: 10 μM, EVs from SW620 cells 7.5×10^8 particles/ml, 5 hours
Experimental: Referring to FIG. 16, illustrates images of the scratch wound healing assay of SW480 cells treated with 10 μM drugs (ICZ, compound 5) without or with EVs (7.5×10^8 particles/ml) derived from SW620 cells for 5 hours (upper panels). The mean±S.E.M. (n=2 independent experiments) is presented (lower panel).

[11] = test system: SW480 cells; experiment: Entry of Rab7+ late endosomes in SUN2+ NEI, confocal microscopy; format: cell-based; details: 10 μM, 5 hours
Experimental: Referring to FIG. 8, illustrates that the triazole compound 5 inhibited the entry of Rab7^+ late endosomes in NEI. SW480 cells were incubated with DMSO (control), 10 μM ICZ, triazole compound 5, triazole compound 3 or ketoconazole (KCZ) for 5 hours prior to double immunolabelling for Rab7 and nuclear membrane protein SUN2 and the staining with cholesterol-binding compound filipin. Cells were analyzed by confocal laser scanning microscopy (left panel). Arrows indicate SUN2^+ NEI and arrowheads point to Rab7 and filipin-labelled cholesterol therein. […] The mean±S.D. are shown. P values are indicated. N.s., not significant. Scale bars, 5 μm.

Q: What does the source list for CC(Nc1nc(N2CCCC2)nc2ccccc12)c1ccccc1 (centres unmarked) [importazole]?
A: NEI-associated late endosomes [1]: lack of the NEI-associated late endosomes; transfer of EV-derived components into the nucleoplasm of host cells [1]: inhibition of transfer

Q: With O=c1[nH]ncn1-c1ccc(Cl)cc1 [compound 3, 4-(4-Chlorophenyl)-2,4-dihydro-3H-1,2,4-triazol-3-one] as the molecule, how does the “co-immunoisolation of Rab7 with ORP3 (Rab7/VAP-A ratio)” value [2] read?
A: do not

Q: And the “toxicity for cells (MTS, viable cells)” value [3]?
A: not toxic

Q: And the “transport of HIV-1 integrase into the nucleoplasmic reticulum (IN-2 immunoreactivity in NEI)” value [4]?
A: detected in NEI

Q: And the “toxicity for cells (MTS, viable cells)” value [5]?
A: not toxic

Q: What about the “co-immunoisolation of Rab7 with ORP3 (Rab7/VAP-A ratio)” value [6] of the same molecule?
A: do not

Q: What does the source list for CCC(C)n1ncn(-c2ccc(Cl)cc2)c1=O (centres unmarked) [compound 5, 2-(butan-2-yl)-4-(4-chlorophenyl)-2,4-dihydro-3H-1,2,4-triazol-3-one]?
A: morphological transformation (rounded or blebbed) induced by EVs from metastatic SW620 cells [7]: inhibited the morphological transformation; co-immunoisolation of Rab7 with ORP3 (Rab7/VAP-A ratio) [2]: inhibits the co-immunoisolation of Rab7; Gag-iGFP expression (productive infection) [8]: reduction in Gag-iGFP expression; toxicity for cells (MTS, viable cells) [3]: not toxic; transport of HIV-1 integrase into the nucleoplasmic reticulum (IN-2 immunoreactivity in NEI) [4]: inhibit the transport of HIV-1 integrase into the nucleoplasmic reticulum; nuclear transfer of EV cargo (EV-derived CD9-GFP in nuclear compartments) [9]: inhibited the nuclear transfer of EV cargo; toxicity for cells (MTS, viable cells) [5]: not toxic; migration of SW480 cells induced by EVs [10]: inhibit the migration; co-immunoisolation of Rab7 with ORP3 (Rab7/VAP-A ratio) [6]: inhibit the co-immunoisolation of Rab7; Rab7 and cholesterol in SUN2+ NEI [11]: absence of Rab7 and cholesterol; entry of Rab7+ late endosomes in NEI [11]: inhibited

Q: With CC(=O)N1CCN(c2ccc(OCC3COC(Cn4ccnc4)(c4ccc(Cl)cc4Cl)O3)cc2)CC1 (centres unmarked) [ketoconazole, reference compound] as the molecule, how does the “co-immunoisolation of Rab7 with ORP3 (Rab7/VAP-A ratio)” value [2] read?
A: do not

Q: What about the “co-immunoisolation of Rab7 with ORP3 (Rab7/VAP-A ratio)” value [6] of the same molecule?
A: do not
